Measurements from patent publication US7129213B2, “Tripeptides and tripeptide derivatives for the treatment of neurodegenerative diseases” (Neurotell AG, priority 2002, dated 2006).
Where a name gives a salt, the structure may show the parent alone. Where a SMILES comes first, the peptide text is derived from it.

Tests used:
[1] = tested on: rats pretreated with orally administered dexamethasone; test: Dexamethasone model, sound avoidance conditioning; type: in vivo, rat
Description: (§1) 20 rats were orally administered 50 mg/kg/day of dexamethasone over a period of 21 days. At Day 19, the animals were chloralized (360 mg/kg), and a catheter was placed into the carotid artery as described above. At Day 21, the animals were randomly divided into two groups: • one group of 10 rats received an intracarotid injection of 1 ml/kg/day of normal saline for a period of 10 days (controls). • one group of 10 rats received 20 mg/kg/day of HCl-Gly-Phe-PrONH2 dissolved in normal saline for a period of 10 days. The injections were given at 9.00 a.m.
During the last five days of treatment, the rats were placed under the common learning conditions of the three models between 10.00 a.m. and 11.00 a.m. (see below).
(§2) During the last five days of treatment, at 10.00 a.m. (1 hour after the administration of HCl-Gly-Phe-ProNH2), the animals were placed into a learning cage for sound avoidance conditioning (Conditioning avoidance response). The animals learned to climb a pole first to escape from and then to avoid an electric shock. This method was standardized and quantified in our laboratory (see Le Poncin M., Lafitte J. C., Rapin J. R., Sound Avoidance Conditioning and a Mathematical approach to the description of acquisition performance, Math. Biosciences 59 (1982) 242–268).
(§3) For a period of five days, the animals were placed everyday under these learning conditions for a total of ten tests a day. Results are expressed as percentage of adequate responses, and the kinetics of the responses is represented by a multi-exponential maximum curve.
(§4) The curve maximum represents the learning capacities. The slope of the curve evaluates the learning speed. The area under the curve (AUC) represents a good evaluation of all conditioning parameters. The maximum value of the area under the curve is 500, if the animals show 100% adequate responses as early as Day 0. In fact, an average area under the curve is calculated per day, what amounts to a maximum value of 100. In the absolute control animals, this average area under the curve is equal to 40+/−4.

[2] = tested on: type II glucocorticoid receptors in the hippocampus; test: Dexamethasone model, determination of the corticoid receptors; type: in vivo, rat; details: rats pretreated by dexamethasone, 20 mg/kg/day 10 days
Description: as §1
After the last learning session at 11.00 a.m., the rats were sacrificed by means of decapitation, and the hippocampi were quickly removed and put on a plate cooled to 0° C. The number of glucocorticoid receptors was determined by a binding method using a labeled corticoid and a specific inhibitor to the binding of the corticoid to the receptor (here a total agonist). The protein content was measured by Lowry's method.
The hippocampi of each rat were homogenized in 2 ml of sodium EDTA Glycerol molybdate buffer. […] An aliquot of the supernatant was diluted in distilled water, and the protein content was measured by Lowry's method. […]
After one night of incubation at 4° C., charcoal/dextran was added to absorb […] dexamethasone. After centrifugation, the radioactivity of the supernatant was measured by liquid scintillation. […]

[3] = tested on: rat treated by Gp120 as intracerebroventricular injection; test: Gp120 model, sound avoidance conditioning; type: in vivo; details: for AUC (average area under the learning curve per day) / percentage of adequate responses D0 / percentage of adequate responses D3 / percentage of adequate responses D4: Gp120 ICV; for percentage of adequate responses D0: learning day D0; for percentage of adequate responses D3: learning day D3; for percentage of adequate responses D4: learning day D4
Description: Day 0. The animals were slightly anesthetized by ether, an incision was made into the skin of the skull, and the skull was pierced by means of a dental burr. A metal needle was stereotaxically directed to the lateral ventricle, and then fixed by means of dental cement. Every day of the experiment, the patency of the needle was controlled.
Day 3. Three days after introducing the needle (recovery from the postoperative shock) the animals received an intra-ventricular injection of 10 nM/kg/day of Gp120 (dissolved in normal saline) in a volume of 20 μl. This administration was repeated daily for a period of five days.
Day 18. Ten days after the last administration of Gp120, the rats were chloralized (360 mg/kg). A permanent floating catheter was retrogradely introduced into the common carotid artery. This catheter left again on the top of the skull, where it was fixed.
(§5) Day 21. Three days later (recovery from the postoperative shock), the 30 rats were randomly divided into three group of 10 animals each: • the first group of 10 rats received an intracarotid injection of 1 ml/kg/day of normal saline for a period of 10 days. • the second group of 10 rats received 10 mg/kg/day of HCl-Gly-Phe-ProNH2 (dissolved in normal saline) for a period of 10 days. • the third group received 20 mg/kg/day of HCl-Gly-Phe-ProNH2 under the same conditions. The injections were given between 9.00 and 9.30 a.m.
Day 26 to 30. The animals of all three groups were placed under the common learning conditions of the entire protocol. The learning sessions took place between 10.00 a.m. and 11.00 a.m.
as §2, §3, §4

hippocampal neurons = test: Gp120 model, neuronal count; type: in vivo, rat; details: CAIII layers, after ICV Gp120; 10 mg/kg/day
Description: as §5
Day 30. After the last learning session, the rats were sacrificed by means of decapitation, the brain was rapidly removed and frozen at […] in liquid nitrogen vapor. Brain sections were made by Cryocut at −20° C.
The sections are defrosted and stained with neutral red. After fixation, the number of neurons on one slice of the hippocampus was measured. The method is standardized by counting the neurons on the same slice. An index of the number of neurons compared to a control rat allows for a more reliable quantification than the simple counting.
The neurons are counted in the CAIII layers of the hippocampus. […] By definition, the value found in the control animals is 100 with a maximum variation of 5%.

NCC(=O)N[C@@H](Cc1ccccc1)C(=O)N1CCC[C@H]1C(N)=O [HCl-Gly-Phe-ProNH2, glycyl-L-phenylalanyl-L-prolineamide] (H-Gly-Phe-Pro-NH2)
percentage of adequate responses D0 ([1]; dexamethasone 50 mg/kg/day oral 21 days, 20 mg/kg/day 10 days, learning day D0): 0% | effect on learning capacities ([1]; dexamethasone model): partially restores the learning capacities | AUC (average area under the learning curve per day) ([1]; dexamethasone model, 20 mg/kg/day 10 days): **35.0 +/− 3.1 | percentage of adequate responses D1 ([1]; dexamethasone model, 20 mg/kg/day 10 days, learning day D1): 7 +/− 2% | percentage of adequate responses D2 ([1]; dexamethasone model, 20 mg/kg/day 10 days, learning day D2): **29 +/− 5% | percentage of adequate responses D3 ([1]; dexamethasone model, 20 mg/kg/day 10 days, learning day D3): **57 +/− 4% | percentage of adequate responses D4 ([1]; dexamethasone model, 20 mg/kg/day 10 days, learning day D4): **75 +/− 3% | type II glucocorticoid receptors in the hippocampus [2]: **73 +/− 4 femtomols/mg of proteins | type II glucocorticoid receptors in the hippocampus ([2]; listed as HCL-GLY-PHE-PRONH2): reduces the down regulation of the glucocorticoid receptors | AUC (average area under the learning curve per day) ([3]; 10 mg/kg/day 10 days): **23.8 +/− 4.1 | percentage of adequate responses D0 ([3]; 10 mg/kg/day 10 days): 0% | percentage of adequate responses D3 ([3]; 10 mg/kg/day 10 days): **35 +/− 4% | percentage of adequate responses D4 ([3]; 10 mg/kg/day 10 days): **55 +/− 7% | AUC (average area under the learning curve per day) ([3]; 20 mg/kg/day 10 days): **29.6 +/− 3.0 | percentage of adequate responses D0 ([3]; 20 mg/kg/day 10 days): 0% | percentage of adequate responses D3 ([3]; 20 mg/kg/day 10 days): **48 +/− 5% | percentage of adequate responses D4 ([3]; 20 mg/kg/day 10 days): **70 +/− 5% | effect on learning parameters ([3]; Gp120 model, 10 and 20 mg/kg): restores the capacities of the animal depending on the dose | Counting of the hippocampal neurons (index, control animals = 100) (hippocampal neurons): 46 +/− 4
